Laboratory results as given in PubChem BioAssay (NCI).
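Five compound concentrations were applied to cells in 96-well plates for 48 hours; endpoints were derived by simple linear interpolation of the resulting dose-response curve. GI50: concentration for 50% inhibition of growth. Definition used: TGI = concentration required for complete inhibition of growth.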

Assays:
Assay in all cases: DTP human tumour cell line panel, 48 h
SNB-75 CNS = tested on: SNB-75 CNS
RPMI-8226 leukemia = tested on: RPMI-8226 leukemia
UACC-257 melanoma = tested on: UACC-257 melanoma
SNB-19 CNS = tested on: SNB-19 CNS
HL-60(TB) leukemia = tested on: HL-60(TB) leukemia
SN12C renal = tested on: SN12C renal
DU-145 prostate = tested on: DU-145 prostate
NCI/ADR-RES ovarian = tested on: NCI/ADR-RES ovarian
KM12 colon = tested on: KM12 colon
EKVX NSCLC = tested on: EKVX NSCLC
BT-549 breast = tested on: BT-549 breast
SF-268 CNS = tested on: SF-268 CNS
SK-MEL-28 melanoma = tested on: SK-MEL-28 melanoma
A498 renal = tested on: A498 renal
SK-MEL-2 melanoma = tested on: SK-MEL-2 melanoma
NCI-H460 lung = tested on: NCI-H460 lung
OVCAR-5 ovarian = tested on: OVCAR-5 ovarian
SF-539 CNS = tested on: SF-539 CNS
UACC-62 melanoma = tested on: UACC-62 melanoma
K-562 leukemia = tested on: K-562 leukemia
PC-3 prostate = tested on: PC-3 prostate
MOLT-4 leukemia = tested on: MOLT-4 leukemia
ACHN renal = tested on: ACHN renal
MCF7 breast = tested on: MCF7 breast
OVCAR-4 ovarian = tested on: OVCAR-4 ovarian
OVCAR-8 ovarian = tested on: OVCAR-8 ovarian
HOP-92 NSCLC = tested on: HOP-92 NSCLC

Work on `CC1(C)Cc2cccc(OCC(O)CN3CCN(c4ccc(F)cc4)CC3)c2O1` (centres undefined) yielded a GI50 (SNB-75 CNS) of 10.9 µM, a TGI (SNB-75 CNS) of 34.2 µM and a GI50 (RPMI-8226 leukemia) of 9.18 µM. The TGI (RPMI-8226 leukemia) was 26.2 µM, the GI50 (UACC-257 melanoma) was 6.34 µM and the TGI (UACC-257 melanoma) was 16.9 µM. For the same molecule, the GI50 (SNB-19 CNS) was 31.7 µM, the TGI (SNB-19 CNS) was > 50 µM and the GI50 (HL-60(TB) leukemia) was 16.4 µM. The TGI (HL-60(TB) leukemia) was > 50 µM, the GI50 (SN12C renal) was 18.9 µM and the TGI (SN12C renal) was > 50 µM. The GI50 (DU-145 prostate) was 24.1 µM, the TGI (DU-145 prostate) was > 50 µM and the GI50 (NCI/ADR-RES ovarian) was 12.2 µM. For the same molecule, the TGI (NCI/ADR-RES ovarian) was 45.6 µM, the GI50 (KM12 colon) was 15.3 µM and the TGI (KM12 colon) was > 50 µM. For the same molecule, the GI50 (EKVX NSCLC) was 25 µM, the TGI (EKVX NSCLC) was > 50 µM and the GI50 (BT-549 breast) was 17.3 µM. For the same molecule, the TGI (BT-549 breast) was 39.8 µM, the GI50 (SF-268 CNS) was 18 µM and the TGI (SF-268 CNS) was > 50 µM. The GI50 (SK-MEL-28 melanoma) was 19.1 µM, the TGI (SK-MEL-28 melanoma) was > 50 µM and the GI50 (A498 renal) was 14 µM. For the same molecule, the TGI (A498 renal) was 35.1 µM, the GI50 (SK-MEL-2 melanoma) was 27 µM and the TGI (SK-MEL-2 melanoma) was > 50 µM. The GI50 (NCI-H460 lung) was 15.3 µM, the TGI (NCI-H460 lung) was > 50 µM and the GI50 (OVCAR-5 ovarian) was 22.1 µM. The TGI (OVCAR-5 ovarian) was > 50 µM, the GI50 (SF-539 CNS) was 13 µM and the TGI (SF-539 CNS) was 27.3 µM. For the same molecule, the GI50 (UACC-62 melanoma) was 11.6 µM, the TGI (UACC-62 melanoma) was > 50 µM and the GI50 (K-562 leukemia) was 16.6 µM. For the same molecule, the TGI (K-562 leukemia) was > 50 µM, the GI50 (PC-3 prostate) was 14 µM and the TGI (PC-3 prostate) was > 50 µM. For the same molecule, the GI50 (MOLT-4 leukemia) was 20.2 µM, the TGI (MOLT-4 leukemia) was > 50 µM and the GI50 (ACHN renal) was 9.65 µM. The TGI (ACHN renal) was 25 µM, the GI50 (MCF7 breast) was 13.4 µM and the TGI (MCF7 breast) was 49.7 µM. For the same molecule, the GI50 (OVCAR-4 ovarian) was 13.3 µM, the TGI (OVCAR-4 ovarian) was > 50 µM and the GI50 (OVCAR-8 ovarian) was 18.2 µM. For the same molecule, the TGI (OVCAR-8 ovarian) was > 50 µM, the GI50 (HOP-92 NSCLC) was 8.15 µM and the TGI (HOP-92 NSCLC) was 31.4 µM.
